{"source": "patent US20130202545A1", "about": "“Stablised Polyphenol Derivatives, Process for Their Manufacture, and Uses Thereof” (BERKEM S.A., priority 2010, published 2013)", "test_system": "explants of human skin", "test": "Anti-lipoperoxidant activity: MDA level in UV-irradiated human skin explants", "assay_type": "cell-based", "text": "Oxygenated free radicals are produced in large quantities on the skin as a result of UV irradiation. These free radical species cause various forms of degradation to cellular components, and in particular, to membrane lipids. The latter are transformed into various hydroperoxide derivatives, such as for example malonyldialdehyde (MDA), and 4-hydrononenal (4-HNE). The determination of the amount of MDA in skin tissues is thus a good indicator of the production of oxygenated free radicals and peroxidation of membrane lipids. A comparison of the levels of MDA between treated and non-treated subjects therefore indicates whether the product applied has anti-lipoperoxidant activity. The model used for the experiments is one of human skin explants which are maintained in survival mode at 37° C., a humid atmosphere and 5% CO2. The skin explants are divided into three positive control batch treated with vitamin E (2 mg per explant) The products to be tested are dissolved at a concentration of 2% Vaseline oil. This solution is applied topically to the skin explants at a rate of one 30 micro-litre application per explant per day for 5 days. […] Levels of MDA (expressed in pmoles of MDA/ml of medium) in the explants are measured for both the treated and untreated batches. […] Antiradical activity was determined using the same method described in example 17. […]", "data": [{"substance": "Vitamin E", "values": [{"measurement": "% Reduction in MDA", "setting": "Example 21, etherified (silyl ether) OPC, same method as the earlier MDA example", "result": 11, "unit": "%"}, {"measurement": "% Reduction in MDA", "setting": "products 2% in Vaseline oil, 30 micro-litre per explant per day for 5 days (vitamin E 2 mg per explant), UV A and UV B on day 5, treated vs untreated explants", "result": 11, "unit": "%"}]}]}
